Measurements taken from US4762843A, “Hetero [f] fused carbocyclic pyridines as dopaminergic agents” (Warner-Lambert Company, priority 1987, dated 1988).
Where a name gives a salt, the structure may show the parent alone. Read-outs that look alike come from different tables or passages of the source.

Legend:
[1] = tested on: locomotor activity in mice; assay: Inhibition of locomotor activity in mice; assay type: in vivo; details: Mus musculus, read-out: Inhibition of Locomotor Activity in Mice (ED50)
Experimental: (§1) The compounds of formula I are valuable dopaminergic agents. […] Thus, the compounds of formula I were tested for their ability to inhibit locomotor activity in mice according to the assay described in Pharmacol. Biochem. Behav. 1978 (8) 97; for their ability to inhibit haloperidol binding in a receptor binding assay described in Mol. Pharmacol. 1976 (12) 800; and for their ability to inhibit dopamine synthesis in rats according to the protocol described in Naumyn-Schmiedeberg's Arch. Pharmacol., 1976 (296) 5. The above test methods are incorporated herein by reference.

haloperidol binding = biological target: T1, haloperidol binding (Bos taurus, UniProt P20288); assay: Inhibition of haloperidol binding in a receptor binding assay; details: read-out: Percent Inhibition Haloperidol Binding
T1 construct: from tissue
T1 sequence (P20288 whole entry): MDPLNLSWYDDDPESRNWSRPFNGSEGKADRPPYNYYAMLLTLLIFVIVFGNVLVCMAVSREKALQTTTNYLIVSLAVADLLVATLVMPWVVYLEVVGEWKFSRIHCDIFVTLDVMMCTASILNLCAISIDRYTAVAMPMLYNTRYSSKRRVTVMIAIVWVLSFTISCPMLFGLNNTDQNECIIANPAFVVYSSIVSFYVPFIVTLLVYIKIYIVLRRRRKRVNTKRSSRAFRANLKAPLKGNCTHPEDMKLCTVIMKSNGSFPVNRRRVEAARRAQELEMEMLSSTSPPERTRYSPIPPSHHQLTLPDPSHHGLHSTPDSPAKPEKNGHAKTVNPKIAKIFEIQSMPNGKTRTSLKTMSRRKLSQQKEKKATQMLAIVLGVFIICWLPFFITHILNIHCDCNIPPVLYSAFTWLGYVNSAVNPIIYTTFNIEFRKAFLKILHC
Experimental: as §1

dopamine synthesis = assay: Inhibition of dopamine synthesis in rats; assay type: in vivo; details: Rattus norvegicus, read-out: Percent Inhibition of Dopamine Synthesis
Experimental: as §1

SMILES	ED50 ([1]; ip) [mg/kg]	inhibition at 5 µM (haloperidol binding) [%]	ED50 ([1]; mice, IP) [mg/kg]	further results
CCCN1CCC=C2c3nc(N)sc3CCC21 (racemic) [Example 5, (±) 4,5,5a,6,7,8-Hexahydro-6-propylthiazolo[4,5-f]quinolin-2-amine]	5.5			inhibition at 1 µM (haloperidol binding): 43%; inhibition at 5 mg/kg (dopamine synthesis): 53%
CN1CCC=C2c3nc(N)sc3CCC21 (racemic) [Example 5a, (±) 4,5,5a,6,7,8-Hexahydro-6-methylthiazolo[4,5-f]quinolin-2-amine]	2.6	62		inhibition at 10 mg/kg (dopamine synthesis): 92%
CCN1CCC=C2c3nc(N)sc3CCC21 (racemic) [Example 5b, (±) 6-Ethyl-4,5,5a,6,7,8-hexahydrothiazolo[4,5-f]quinolin-2-amine]	0.62	68		inhibition at 1 mg/kg (dopamine synthesis): 60%
CCCCN1CCC=C2c3nc(N)sc3CCC21 (racemic) [Example 5c, (±) 6-Butyl-4,5,5a,6,7,8-hexahydrothiazolo[4,5-f]quinolin-2-amine, dihydrochloride, hemihydrate]	14.7			inhibition at 10 µM (haloperidol binding): 70%; inhibition at 10 mg/kg (dopamine synthesis): 18%
C=CCN1CCC=C2c3nc(N)sc3CCC21 (racemic) [Example 5d, (±) 4,5,5a,6,7,8-Hexahydro-6-(2-propenyl)thiazolo [4,5-f]quinolin-2-amine, dihydrochloride]	0.24			inhibition at 5 mg/kg (dopamine synthesis): 100%
Nc1nc2c(s1)CCC1C2=CCCN1CC1CC1 (racemic) [Example 5e, (±) 6-(Cyclopropylmethyl)-4,5,5a,6,7,8-hexahydrothiazolo[4,5-f]quinolin-2-amine, dihydrochloride]	12			inhibition at 1 µM (haloperidol binding): 62%
Nc1nc2c(s1)CCC1C2=CCCN1CCc1ccccc1 (racemic) [Example 5f, (±) 4,5,5a,6,7,8-Hexahydro-6-(2-phenylethyl)thiazolo [4,5-f]quinolin-2-amine]			31.3	inhibition at 5 µM (haloperidol binding; at 5 × 10^-6 M): 67%
Nc1nc2c(s1)CCC1C2=CCCN1Cc1ccccc1 (racemic) [Example 5g, (±) 4,5,5a,6,7,8-Hexahydro-6-(phenylmethyl)thiazolo [4,5-f]quinolin-2-amine, dihydrochloride, hydrate]			26.1	inhibition at 5 µM (haloperidol binding; at 5 × 10^-6 M): 61%
CCCN1CCC=C2c3nc(NC(C)=O)sc3CCC21 (racemic) [Example 15a, (±) N-(4,5,5a,6,7,8-Hexahydro-6-propylthiazolo[4,5-f]quinolin-2-yl)acetamide]			16.3	inhibition at 5 µM (haloperidol binding; at 5 × 10^-6 M): 23%
C=CCN1CCC=C2c3nc(NC(C)=O)sc3CCC21 (racemic) [Example 15b, (±) N-[4,5,5a,6,7,8-Hexahydro-6-(2-propenyl)thiazolo [4,5-f]quinolin-2-yl]acetamide]			3.1	inhibition at 10 µM (haloperidol binding; at 1 × 10^-5): 21%; inhibition at 5 mg/kg (dopamine synthesis; rats, at 5 mg/kg): 82%
CCCN1CCC[C@H]2c3sc(N)nc3CC[C@@H]21 (racemic) [Example 17, (±) trans-4,5,5a,6,7,8,9,9a-Octahydro-6-propylthiazolo[5,4-f]quinolin-2-amine]	0.7			inhibition at 1 µM (haloperidol binding): 37%; inhibition at 5 mg/kg (dopamine synthesis): 100%
Nc1nc2c(s1)CCC1NCCC=C21 (racemic) [Example 40, (±) 4,5,5a,6,7,8-Hexahydrothiazolo[4,5-f]quinolin-2-amine, dihydrochloride]	11.6	77		inhibition at 10 mg/kg (dopamine synthesis): 44%
CCCN1CCC=C2c3nc(N)sc3CCC21 (single isomer, unassigned; (+)) [Example 16, (+) 4,5,5a,6,7,8-hexahydro-6-propylthiazolo[4,5-f]quinolin-2-amine, dihydrochloride]	2.5	76		inhibition at 3 mg/kg (dopamine synthesis): 100%
